Data taken from PMC7463651, “Phase I/Ib Study of Tenalisib (RP6530), a Dual PI3K δ/γ Inhibitor in Patients with Relapsed/Refractory T-Cell Lymphoma” (Cancers, 2020).
Entries after “also recorded” stand apart in the source; their conditions may differ.

System: patients with relapsed/refractory T Cell Lymphoma
Experiment: Safety assessment (adverse events per CTCAE v4.03, DLT/MTD) in phase I/Ib study
Type: in vivo, human
Protocol: Protocol defined hematological or non-hematological toxicity was considered dose-limiting if it occurred during the first cycle (within the first 28 d) and was considered related to Tenalisib. Hematological DLTs was defined as Grade 4 anemia; Grade 4 neutropenia for >7 days, or Grade ≥3 febrile neutropenia with fever >38.5 °C [101 °F]; Grade 4 thrombocytopenia for >7 days, or Grade ≥3 thrombocytopenia associated with Grade >2 bleeding.
Safety assessment included adverse event (AE) and serious adverse events (SAE) as per Common Terminology Criteria for Adverse Events (CTCAE), Version 4.03. During dose escalation, safety assessments were performed at weekly intervals during Cycle 1 and Cycle 2 and at two weekly intervals during Cycle 3 and 4. After completion of Cycle 4, safety assessments were performed on Day 1 of each subsequent cycle. In dose expansion phase, all safety assessments were performed on Day 1 of each cycle.

[1] = Relationship-Related, Dose Escalation (N = 19)
[2] = Relationship-Related, Dose Expansion (N = 39)
[3] = Relationship-Related, Total (N = 58)
[4] = Relationship-all, Dose Escalation (N = 19)
[5] = Relationship-all, Dose Expansion (N = 39)

SMILES: CC[C@H](Nc1ncnc2[nH]cnc12)c1oc2ccccc2c(=O)c1-c1cccc(F)c1 [Tenalisib]
- Maximum tolerated dose (MTD) (BID, fasting): 800 mg
- Number of related AEs (CTCL patients): 208
- Number of related ≥Grade 3 AEs (CTCL patients): 25
- Patients with related AEs (CTCL patients): 27 (90%) n (%)
- Patients with related ≥Grade 3 AEs (CTCL patients): 12 (40%) n (%)
- Dose-limiting toxicities (DLT) (Cohort 4, 800 mg BID (fed)): Two dose-limiting toxicities; also recorded: Two DLTs (Grade 3 ALT increased and Grade 3 erythematous rash)
- Number of related AEs (PTCL patients): 51
- Neutropenia: patients with event [1]: 2 (10.5%) n (%)
- Pruritus: count of events [1]: 1
- Pruritus: patients with event [1]: 1 (5.3%) n (%)
- Pyrexia: patients with event [1]: 0 n (%)
- Vomiting: count of events [1]: 3
- Vomiting: patients with event [1]: 2 (10.5%) n (%)
- Alanine aminotransferase increased: count of events [2]: 18
- Alanine aminotransferase increased: patients with event [2]: 12 (30.8%) n (%)
- Anemia: count of events [2]: 2
- Anemia: patients with event [2]: 2 (5.1%) n (%)
- Aspartate aminotransferase increased: count of events [2]: 20
- Aspartate aminotransferase increased: patients with event [2]: 12 (30.8%) n (%)
- Blood alkaline phosphatase increased: count of events [2]: 2
- Blood alkaline phosphatase increased: patients with event [2]: 2 (5.1%) n (%)
- Blood thyroid stimulating hormone increased: count of events [2]: 3
- Blood thyroid stimulating hormone increased: patients with event [2]: 2 (5.1%) n (%)
- Dehydration: count of events [2]: 3
- Dehydration: patients with event [2]: 3 (7.7%) n (%)
- Diarrhea: count of events [2]: 10
- Diarrhea: patients with event [2]: 9 (23.1%) n (%)
- Dizziness: count of events [2]: 3
- Dizziness: patients with event [2]: 3 (7.7%) n (%)
- Dyspepsia: count of events [2]: 2
- Dyspepsia: patients with event [2]: 2 (5.1%) n (%)
- Erythema: count of events [2]: 2
- Erythema: patients with event [2]: 2 (5.1%) n (%)
- Fatigue: count of events [2]: 7
- Fatigue: patients with event [2]: 7 (17.9%) n (%)
- Gamma-glutamyltransferase increased: count of events [2]: 7
- Gamma-glutamyltransferase increased: patients with event [2]: 5 (12.8%) n (%)
- Headache: count of events [2]: 2
- Headache: patients with event [2]: 2 (5.1%) n (%)
- Muscle spasms: count of events [2]: 3
- Muscle spasms: patients with event [2]: 3 (7.7%) n (%)
- Nausea: count of events [2]: 2
- Nausea: patients with event [2]: 2 (5.1%) n (%)
- Neutropenia: count of events [2]: 1
- Neutropenia: patients with event [2]: 1 (2.6%) n (%)
- Pruritus: count of events [2]: 3
- Pruritus: patients with event [2]: 3 (7.7%) n (%)
- Pyrexia: count of events [2]: 5
- Pyrexia: patients with event [2]: 3 (7.7%) n (%)
- Vomiting: count of events [2]: 1
- Vomiting: patients with event [2]: 1 (2.6%) n (%)
- Alanine aminotransferase increased: count of events [3]: 31
- Alanine aminotransferase increased: patients with event [3]: 18 (31.0%) n (%)
- Anemia: count of events [3]: 3
- Anemia: patients with event [3]: 3 (5.2%) n (%)
- Aspartate aminotransferase increased: count of events [3]: 35
- Aspartate aminotransferase increased: patients with event [3]: 18 (31.0%) n (%)
- Blood alkaline phosphatase increased: count of events [3]: 3
- Blood alkaline phosphatase increased: patients with event [3]: 3 (5.2%) n (%)
- Blood thyroid stimulating hormone increased: count of events [3]: 5
- Blood thyroid stimulating hormone increased: patients with event [3]: 4 (6.9%) n (%)
- Dehydration: count of events [3]: 4
- Dehydration: patients with event [3]: 4 (6.9%) n (%)
- Diarrhea: count of events [3]: 14
- Diarrhea: patients with event [3]: 12 (20.7%) n (%)
- Dizziness: count of events [3]: 5
- Dizziness: patients with event [3]: 5 (8.6%) n (%)
- Dyspepsia: count of events [3]: 3
- Dyspepsia: patients with event [3]: 3 (5.2%) n (%)
- Erythema: count of events [3]: 3
- Erythema: patients with event [3]: 3 (5.2%) n (%)
- Fatigue: count of events [3]: 9
- Fatigue: patients with event [3]: 9 (15.5%) n (%)
- Gamma-glutamyltransferase increased: count of events [3]: 9
- Gamma-glutamyltransferase increased: patients with event [3]: 7 (12.1%) n (%)
- Headache: count of events [3]: 6
- Headache: patients with event [3]: 5 (8.6%) n (%)
- Muscle spasms: count of events [3]: 6
- Muscle spasms: patients with event [3]: 5 (8.6%) n (%)
- Nausea: count of events [3]: 4
- Nausea: patients with event [3]: 3 (5.2%) n (%)
- Neutropenia: count of events [3]: 3
- Neutropenia: patients with event [3]: 3 (5.2%) n (%)
- Pruritus: count of events [3]: 4
- Pruritus: patients with event [3]: 4 (6.9%) n (%)
- Pyrexia: count of events [3]: 5
- Pyrexia: patients with event [3]: 3 (5.2%) n (%)
- Vomiting: count of events [3]: 4
- Vomiting: patients with event [3]: 3 (5.2%) n (%)
- Grade 3/4 Alanine aminotransferase increased: count of events (Relationship-all): 5
- Grade 3/4 Alanine aminotransferase increased: patients with event (Relationship-all): 5 (26.3%) n (%)
- Grade 3/4 Anemia: count of events (Relationship-all): 2
- Grade 3/4 Anemia: patients with event (Relationship-all): 2 (10.5%) n (%)
- Grade 3/4 Aspartate aminotransferase increased: count of events (Relationship-all): 4
- Grade 3/4 Aspartate aminotransferase increased: patients with event (Relationship-all): 4 (21.1%) n (%)
- Grade 3/4 Fatigue: count of events (Relationship-all): 1
- Grade 3/4 Fatigue: patients with event (Relationship-all): 1 (5.3%) n (%)
- Grade 3/4 Hyponatremia: count of events (Relationship-all): 2
- Grade 3/4 Hyponatremia: patients with event (Relationship-all): 2 (10.5%) n (%)
- Grade 3/4 Neutropenia: count of events (Relationship-all): 2
- Grade 3/4 Neutropenia: patients with event (Relationship-all): 2 (10.5%) n (%)
- Grade 3/4 Thrombocytopenia: count of events (Relationship-all): 1
- Grade 3/4 Thrombocytopenia: patients with event (Relationship-all): 1 (5.3%) n (%)
- Abdominal pain: count of events [4]: 3
- Abdominal pain: patients with event [4]: 3 (15.8%) n (%)
- Alanine aminotransferase increased: count of events [4]: 13
- Alanine aminotransferase increased: patients with event [4]: 6 (31.6%) n (%)
- Anemia: count of events [4]: 6
- Anemia: patients with event [4]: 3 (15.8%) n (%)
- Aspartate aminotransferase increased: count of events [4]: 16
- Aspartate aminotransferase increased: patients with event [4]: 7 (36.8%) n (%)
- Blood creatinine increased: count of events [4]: 1
- Vomiting: count of events [4]: 5
- Vomiting: patients with event [4]: 4 (21.1%) n (%)
- Abdominal pain: count of events [5]: 6
- Abdominal pain: patients with event [5]: 5 (12.8%) n (%)
- Alanine aminotransferase increased: count of events [5]: 20
- Alanine aminotransferase increased: patients with event [5]: 14 (35.9%) n (%)
- Anemia: count of events [5]: 10
- Anemia: patients with event [5]: 6 (15.4%) n (%)
- Aspartate aminotransferase increased: count of events [5]: 21
- Aspartate aminotransferase increased: patients with event [5]: 14 (35.9%) n (%)
- Blood creatinine increased: count of events [5]: 6
- Blood creatinine increased: patients with event [5]: 6 (15.4%) n (%)
- Blood thyroid stimulating hormone increased: count of events [5]: 5
- Blood thyroid stimulating hormone increased: patients with event [5]: 4 (10.3%) n (%)
- Constipation: count of events [5]: 5
- Constipation: patients with event [5]: 5 (12.8%) n (%)
- Cough: count of events [5]: 9
- Cough: patients with event [5]: 7 (17.9%) n (%)
- Decreased appetite: count of events [5]: 8
- Decreased appetite: patients with event [5]: 7 (17.9%) n (%)
- Dehydration: count of events [5]: 13
- Dehydration: patients with event [5]: 10 (25.6%) n (%)
- Diarrhea: count of events [5]: 19
- Diarrhea: patients with event [5]: 14 (35.9%) n (%)
- Dizziness: count of events [5]: 9
- Dizziness: patients with event [5]: 7 (17.9%) n (%)
- Dry skin: count of events [5]: 6
- Dry skin: patients with event [5]: 5 (12.8%) n (%)
- Dyspnea: count of events [5]: 2
- Dyspnea: patients with event [5]: 2 (5.1%) n (%)
- Fatigue: count of events [5]: 19
- Fatigue: patients with event [5]: 18 (46.2%) n (%)
- Gamma-glutamyl transferase increased: count of events [5]: 9
- Gamma-glutamyl transferase increased: patients with event [5]: 6 (15.4%) n (%)
- Headache: count of events [5]: 9
- Headache: patients with event [5]: 7 (17.9%) n (%)
- Hypokalemia: count of events [5]: 5
- Hypokalemia: patients with event [5]: 3 (7.7%) n (%)
- Hyponatremia: count of events [5]: 5
- Hyponatremia: patients with event [5]: 4 (10.3%) n (%)
- Insomnia: count of events [5]: 4
- Insomnia: patients with event [5]: 3 (7.7%) n (%)
- Muscle spasms: count of events [5]: 4
- Muscle spasms: patients with event [5]: 4 (10.3%) n (%)
- Nausea: count of events [5]: 9
- Nausea: patients with event [5]: 9 (23.1%) n (%)
- Pruritus: count of events [5]: 5
- Pruritus: patients with event [5]: 5 (12.8%) n (%)
- Psychiatric disorders: count of events [5]: 12
- Psychiatric disorders: patients with event [5]: 7 (17.9%) n (%)
- Pyrexia: count of events [5]: 17
